The source of these data is ChEMBL document CHEMBL3044790, “Evaluation of antiasthmatic activity of 7,8,9,10-tetrahydroazepino[2,1-b]quinazolin-12(6H)-one in combination with ambroxol in Guinea pigs” (2012).

Activity calls are given as the source filed them. No cut-off for these calls is given here.

Assay [1] relates to Cavia porcellus. The assay can be described thus: Antiasthmatic activity in Cavia porcellus Hartley (guinea pig) ovalbumin-induced hyperresponsive model assessed as reduction in TBARS level in BAL at 20 mg/kg, ip qd administered for 7 days challenged 30 min post last dose on day 7 (reference value: 0.471 +/- 0.08 nmol/ml). In kind it is functional. The settings on record: route intraperitoneal.

In assay [2] the test system is Cavia porcellus. The assay can be described thus: Antiasthmatic activity in Cavia porcellus Hartley (guinea pig) ovalbumin-induced hyperresponsive model assessed as cough latency at 10 mg/kg, ip qd administered for 7 days challenged 30 min post last dose on day 7 (reference value: 4.75 +/- 0.86 min). In kind it is functional. The settings on record: route intraperitoneal.

The test system of assay [3] is Cavia porcellus. Kind of assay: Antiasthmatic activity in Cavia porcellus Hartley (guinea pig) ovalbumin-induced hyperresponsive model assessed as increase in GSH level in per gram of lung tissue at 20 mg/kg, ip qd administered for 7 days challenged 30 min post last dose on day 7 (reference value: 15.175 +/- 1.809 umol/g). The settings on record: route intraperitoneal. In kind it is functional.

Assay [4] concerns Cavia porcellus. Kind of assay: Antiasthmatic activity in Cavia porcellus Hartley (guinea pig) ovalbumin-induced hyperresponsive model assessed as decrease in nitrate/nitrite level in BAL at 20 mg/kg, ip qd administered for 7 days challenged 30 min post last dose on day 7 by griess assay (reference value: 70.16 +/- 6.20 umol/ml). The format is functional. As to conditions: route intraperitoneal. In general terms: Nitrite, measured by Griess reagent, commonly stands in for NO production.

In assay [5] the test system is Cavia porcellus. Kind of assay: Antiasthmatic activity in Cavia porcellus Hartley (guinea pig) ovalbumin-induced hyperresponsive model assessed as reduction in eosinophil count in BAL at 20 mg/kg, ip qd administered for 7 days challenged 30 min post last dose on day 7. The format is functional, organism-based. Set-up: dose 20 mg/kg.
The test system of another assay is Bronchus smooth muscle. The assay can be described thus: Inhibition of ovalbumin-induced constriction of Cavia porcellus (guinea pig) bronchial smooth muscle. The format is functional.
The test system of assay [6] is Cavia porcellus. The assay can be described thus: Antiasthmatic activity in Cavia porcellus Hartley (guinea pig) ovalbumin-induced hyperresponsive model assessed as increase in GSH level in BAL at 20 mg/kg, ip qd administered for 7 days challenged 30 min post last dose on day 7 (reference value: 28.95 +/- 3.66 umol/ml). The format is functional. The settings on record: route intraperitoneal.

Assay [7] relates to Cavia porcellus. The assay can be described thus: Antiasthmatic activity in Cavia porcellus Hartley (guinea pig) ovalbumin-induced hyperresponsive model assessed as reduction in TBARS level in per gram of lung tissue at 20 mg/kg, ip qd administered for 7 days challenged 30 min post last dose on day 7 (reference value: 0.291 +/- 0.039 nmol/g). In kind it is functional. As to conditions: route intraperitoneal.

For assay [8], the system named is Cavia porcellus. Kind of assay: Antiasthmatic activity in Cavia porcellus Hartley (guinea pig) ovalbumin-induced hyperresponsive model assessed as decrease in nitrate/nitrite level in per gram of lung tissue at 20 mg/kg, ip qd administered for 7 days challenged 30 min post last dose on day 7 by griess assay (reference value: 195.55 +/- 8.34 umol/g). The format is functional. The settings on record: route intraperitoneal.

The test system of assay [9] is Cavia porcellus. Kind of assay: Antiasthmatic activity in Cavia porcellus Hartley (guinea pig) ovalbumin-induced hyperresponsive model assessed as reduction in total lymphocyte count in BAL at 20 mg/kg, ip qd administered for 7 days challenged 30 min post last dose on day 7. In kind it is functional, organism-based. Set-up: dose 20 mg/kg.
In assay [10] the test system is Cavia porcellus. Kind of assay: Antiasthmatic activity in Cavia porcellus Hartley (guinea pig) ovalbumin-induced hyperresponsive model assessed as cough latency at 20 mg/kg, ip qd administered for 7 days challenged 30 min post last dose on day 7 (reference value: 4.75 +/- 0.86 min). As to conditions: route intraperitoneal. The format is functional.
In assay [11] the test system is Cavia porcellus. Kind of assay: Antiasthmatic activity in Cavia porcellus Hartley (guinea pig) ovalbumin-induced hyperresponsive model assessed as reduction in eosinophil count in BAL at 50 mg/kg, ip qd administered for 7 days challenged 30 min post last dose on day 7. In kind it is functional, organism-based. Also on record: dose 50 mg/kg.
The subject of assay [12] is Cavia porcellus. The assay can be described thus: Antiasthmatic activity in Cavia porcellus Hartley (guinea pig) ovalbumin-induced hyperresponsive model assessed as reduction in TBARS level in BAL at 100 mg/kg, ip qd administered for 7 days challenged 30 min post last dose on day 7 (reference value: 0.471 +/- 0.08 nmol/ml). In kind it is functional. As to conditions: route intraperitoneal.

Assay [13] relates to Cavia porcellus. The assay can be described thus: Antiasthmatic activity in Cavia porcellus Hartley (guinea pig) ovalbumin-induced hyperresponsive model assessed as reduction in TBARS level in per gram of lung tissue at 100 mg/kg, ip qd administered for 7 days challenged 30 min post last dose on day 7 (reference value: 0.291 +/- 0.039 nmol/g). In kind it is functional. As to conditions: route intraperitoneal.

Assay [14] relates to Cavia porcellus. The assay can be described thus: Antiasthmatic activity in Cavia porcellus Hartley (guinea pig) ovalbumin-induced hyperresponsive model assessed as reduction in total lymphocyte count in BAL at 100 mg/kg, ip qd administered for 7 days challenged 30 min post last dose on day 7. The format is functional, organism-based. Set-up: dose 100 mg/kg.
The test system of assay [15] is Cavia porcellus. The assay can be described thus: Antiasthmatic activity in Cavia porcellus Hartley (guinea pig) ovalbumin-induced hyperresponsive model assessed as reduction in total lymphocyte count in BAL at 50 mg/kg, ip qd administered for 7 days challenged 30 min post last dose on day 7. The format is functional, organism-based. Set-up: dose 50 mg/kg.
Assay [16] relates to Cavia porcellus. Kind of assay: Antiasthmatic activity in Cavia porcellus Hartley (guinea pig) ovalbumin-induced hyperresponsive model assessed as increase in GSH level in BAL at 100 mg/kg, ip qd administered for 7 days challenged 30 min post last dose on day 7 (reference value: 28.95 +/- 3.66 umol/ml). The format is functional. The settings on record: route intraperitoneal.

In assay [17] the test system is Cavia porcellus. Kind of assay: Antiasthmatic activity in Cavia porcellus Hartley (guinea pig) ovalbumin-induced hyperresponsive model assessed as cough latency at 100 mg/kg, ip qd administered for 7 days challenged 30 min post last dose on day 7 (reference value: 4.75 +/- 0.86 min). The format is functional. As to conditions: route intraperitoneal.
The test system of assay [18] is Cavia porcellus. Kind of assay: Antiasthmatic activity in Cavia porcellus Hartley (guinea pig) ovalbumin-induced hyperresponsive model assessed as increase in GSH level in per gram of lung tissue at 100 mg/kg, ip qd administered for 7 days challenged 30 min post last dose on day 7 (reference value: 15.175 +/- 1.809 umol/g). The settings on record: route intraperitoneal. In kind it is functional.

The subject of assay [19] is Cavia porcellus. Kind of assay: Antiasthmatic activity in Cavia porcellus Hartley (guinea pig) ovalbumin-induced hyperresponsive model assessed as decrease in nitrate/nitrite level in per gram of lung tissue at 100 mg/kg, ip qd administered for 7 days challenged 30 min post last dose on day 7 by griess assay (reference value: 195.55 +/- 8.34 umol/g). The format is functional. The settings on record: route intraperitoneal.

The subject of assay [20] is Cavia porcellus. The assay can be described thus: Antiasthmatic activity in Cavia porcellus Hartley (guinea pig) ovalbumin-induced hyperresponsive model assessed as decrease in nitrate/nitrite level in BAL at 100 mg/kg, ip qd administered for 7 days challenged 30 min post last dose on day 7 by griess assay (reference value: 70.16 +/- 6.20 umol/ml). The format is functional. The settings on record: route intraperitoneal.

Assay [21] deals with Cavia porcellus. Kind of assay: Antiasthmatic activity in Cavia porcellus Hartley (guinea pig) ovalbumin-induced hyperresponsive model assessed as cough latency at 50 mg/kg, ip qd administered for 7 days challenged 30 min post last dose on day 7 (reference value: 4.75 +/- 0.86 min). The format is functional. As to conditions: route intraperitoneal.
Assay [22] relates to Cavia porcellus. Kind of assay: Antiasthmatic activity in Cavia porcellus Hartley (guinea pig) ovalbumin-induced hyperresponsive model assessed as reduction in eosinophil count in BAL at 100 mg/kg, ip qd administered for 7 days challenged 30 min post last dose on day 7. The format is functional, organism-based. Also on record: dose 100 mg/kg.

Take `O=c1c2ccccc2nc2n1CCCCC2`: the Activity amounted to 0.199 nmol/mL in the assay with Cavia porcellus [1]; 66.67 µmol with Cavia porcellus [3]; 48.945 µmol/mL in the assay with Cavia porcellus [4]; 71.67 µmol/mL in the assay on Cavia porcellus [6]; 0.094 nmol in the assay with Cavia porcellus [7]; 81.777 µmol with Cavia porcellus [8]. In addition, the figures for the Time in the assay on Cavia porcellus [2] and in the assay on Cavia porcellus [10] were 15.67 min and 22.32 min, respectively. The outcome in the assay on Cavia porcellus [5] and in the assay with Cavia porcellus [9] was Active. Also, the inhibition result in the assay with Bronchus smooth muscle is “Dose-dependent effect”.
With `Nc1c(Br)cc(Br)cc1CN[C@H]1CC[C@H](O)CC1` [AMBROXOL], the outcome with Cavia porcellus [11], with Cavia porcellus [14], in the assay on Cavia porcellus [15] and in the assay on Cavia porcellus [22] was Active. Also, the Activity in the assay on Cavia porcellus [12] is 0.325 nmol/mL; in the assay with Cavia porcellus [13], 0.146 nmol; in the assay with Cavia porcellus [16], 56.83 µmol/mL; in the assay on Cavia porcellus [18], 50.28 µmol; in the assay with Cavia porcellus [19], 134.67 µmol; with Cavia porcellus [20] it was 49.075 µmol/mL. Moreover, the Time in the assay with Cavia porcellus [17] was 13.17 min; with Cavia porcellus [21] it was 5.627 min.
